Results published in US9708334B2, “Substituted 2,4,5,6-tetrahydropyrrolo[3,4-c]pyrazole and 4,5,6,7-tetrahydro-2H-pyrazolo[4,3-c]pyridine compounds as GlyT1 inhibitors” (DART NEUROSCIENCE (CAYMAN) LTD., priority 2014, dated 2017).

molecular target: T1, GlyT1 (Homo sapiens, UniProt P48067); experiment: Glycine Transporter 1 (GlyT1) uptake assay, scintillation proximity assay of [14C]-glycine uptake; format: cell-based; conditions: SPA, four parameter logistic fit, read-out: GlyT1 (pIC50) (converted)
T1 construct: expressed in transfected cells
T1 sequence (P48067 1-706): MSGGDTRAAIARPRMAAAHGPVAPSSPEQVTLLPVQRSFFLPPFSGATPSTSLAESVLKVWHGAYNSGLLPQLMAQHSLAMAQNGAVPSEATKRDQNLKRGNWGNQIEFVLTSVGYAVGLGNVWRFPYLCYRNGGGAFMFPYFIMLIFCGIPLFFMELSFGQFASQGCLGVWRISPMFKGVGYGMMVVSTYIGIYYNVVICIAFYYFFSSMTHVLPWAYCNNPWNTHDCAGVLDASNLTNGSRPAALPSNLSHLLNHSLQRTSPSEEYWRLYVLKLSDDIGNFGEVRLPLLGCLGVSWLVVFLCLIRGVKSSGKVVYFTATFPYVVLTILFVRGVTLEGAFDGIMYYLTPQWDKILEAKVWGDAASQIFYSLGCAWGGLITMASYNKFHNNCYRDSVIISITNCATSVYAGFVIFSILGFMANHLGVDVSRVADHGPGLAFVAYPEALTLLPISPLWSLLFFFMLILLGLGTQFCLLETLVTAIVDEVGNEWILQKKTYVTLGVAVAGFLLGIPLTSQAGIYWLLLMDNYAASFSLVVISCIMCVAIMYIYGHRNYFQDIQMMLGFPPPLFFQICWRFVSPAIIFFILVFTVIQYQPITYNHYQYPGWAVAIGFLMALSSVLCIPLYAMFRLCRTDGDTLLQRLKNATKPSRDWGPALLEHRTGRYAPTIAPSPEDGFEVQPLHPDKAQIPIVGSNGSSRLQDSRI
Procedure, shortened: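 [14C]-glycine uptake read by scintillation proximity on a plate counter. IC50 from four-parameter logistic fit of dose-response data.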

Which IC50 does the source give for CS(=O)(=O)c1ccc(-c2cccc(F)c2)c(C(=O)N2Cc3cn(-c4ccncc4)nc3C2)c1 [Example 142, 4-{5-[2-(3-Fluorophenyl)-5-methanesulfonylbenzoyl]-2H 4H 5H 6H-pyrrolo[3,4-c]pyrazol-2-yl}pyridine] here?
The IC50 was less than 100 nM.

For CC(Oc1ccc(C#N)cc1C(=O)N1CCc2nn(-c3ccc(F)cc3)cc2C1)C(F)(F)F (stereo not shown) [Example 181, 3-[2-(4-Fluorophenyl)-2H 4H 5H 6H 7H-pyrazolo[4,3-c]pyridine-5-carbonyl]-4-[(1 1 1-trifluoropropan-2-yl)oxy]benzonitrile], which IC50 is on record?
Its IC50 is 1000 to 10000 nM.

How did the IC50 turn out when CCS(=O)(=O)c1ccc(-c2cccc(F)c2)c(C(=O)N2Cc3cn(-c4cncc(F)c4)nc3C2)c1 [Example 571] was run?
The IC50 was less than 100 nM.

C[C@H](Oc1ccc(S(C)(=O)=O)cc1C(=O)N1Cc2cn(-c3cccc(F)c3Cl)nc2C1)C(F)(F)F [Example 147, 2-(2-Chloro-3-fluorophenyl)-5-(5-methanesulfonyl-2-{[(2S)-1 1 1-trifluoropropan-2-yl]oxy}benzoyl)-2H 4H 5H 6H-pyrrolo[3,4-c]pyrazole] was tested. Which IC50 did it give?
Its IC50 is less than 100 nM.

COc1c(C#N)ccc(C2(F)CCOCC2)c1C(=O)N1Cc2cn(-c3ccc(F)cn3)nc2C1 [Example 259, 4-(4-Fluorooxan-4-yl)-3-[2-(5-fluoropyridin-2-yl)-2H 4H 5H 6H-pyrrolo[3,4-c]pyrazole-5-carbonyl]-2-methoxybenzonitrile] was tested. Which IC50 did it give?
Its IC50 is 100 to 1000 nM.

CS(=O)(=O)c1ccc(-c2cccc(F)c2)c(C(=O)N2Cc3cn(CC4CC4)nc3C2)c1 [Example 449, 2-(Cyclopropylmethyl)-5-[2-(3-fluorophenyl)-5-methanesulfonylbenzoyl]-2H 4H 5H 6H-pyrrolo[3,4-c]pyrazole] was tested. Which IC50 did it give?
The IC50 was less than 100 nM.

How did the IC50 turn out when COc1c(C#N)ccc(N2CCC(F)(F)CC2)c1C(=O)N1Cc2cn(-c3ccc(F)cc3)nc2C1 [Example 510, 4-(4 4-Difluoropiperidin-1-yl)-3-[2-(4-fluorophenyl)-2H 4H 5H 6H-pyrrolo[3,4-c]pyrazole-5-carbonyl]-2-methoxybenzonitrile] was run?
The IC50 was less than 100 nM.

CC(C)Oc1ccc(C#N)cc1C(=O)N1Cc2cn(-c3ccc(C#N)nc3)nc2C1 [Example 466] was tested. Which IC50 did it give?
The IC50 was 100 to 1000 nM.

Which IC50 does the source give for COc1c(C#N)ccc(O[C@@H](C)C(F)(F)F)c1C(=O)N1Cc2cnn(-c3ccc(F)c(C)n3)c2C1 [Example 297, 3-[1-(5-Fluoro-6-methylpyridin-2-yl)-1H 4H 5H 6H-pyrrolo[3,4-c]pyrazole-5-carbonyl]-2-methoxy-4-{[(2S)-1 1 1-trifluoropropan-2-yl]oxy}benzonitrile] here?
The IC50 was less than 100 nM.

Which IC50 does the source give for COc1c(C#N)ccc(OCC2(C(F)(F)F)CC2)c1C(=O)N1CCc2nn(-c3ccc(F)cc3)cc2C1 [Example 476, 3-[2-(4-Fluorophenyl)-2H 4H 5H 6H 7H-pyrazolo[4,3-c]pyridine-5-carbonyl]-2-methoxy-4-{[1-(trifluoromethyl)cyclopropyl]methoxy}benzonitrile] here?
Its IC50 is 1000 to 10000 nM.

COc1c(C#N)ccc(OC(C)C(F)(F)F)c1C(=O)N1CCc2nn(-c3cncc(F)c3)cc2C1 (stereo not shown) [Example 154, 3-[2-(5-Fluoropyridin-3-yl)-2H 4H 5H 6H 7H-pyrazolo[4,3-c]pyridine-5-carbonyl]-2-methoxy-4-[(1 1 1-trifluoropropan-2-yl)oxy]benzonitrile] was tested. Which IC50 did it give?
Its IC50 is less than 100 nM.

With COc1c(C#N)ccc(OCC(F)(F)F)c1C(=O)N1Cc2cn(-c3ccc(F)cc3)nc2C1 [Example 29, 3-[2-(4-Fluorophenyl)-2H 4H 5H 6H-pyrrolo[3,4-c]pyrazole-5-carbonyl]-2-methoxy-4-(2 2 2-trifluoroethoxy)benzonitrile] as the compound, how does the IC50 read?
The IC50 was less than 100 nM.

Which IC50 does the source give for Cc1ccc(F)c(-n2cc3c(n2)CN(C(=O)c2cc(S(C)(=O)=O)ccc2OCC2CC2)C3)c1 [Example 136, 5-[2-(Cyclopropylmethoxy)-5-methanesulfonylbenzoyl]-2-(2-fluoro-5-methylphenyl)-2H 4H 5H 6H-pyrrolo[3,4-c]pyrazole] here?
The IC50 was less than 100 nM.
